Like-named read-outs stand apart in the source and are kept apart here.
What was measured:
[1] = Part A (SAD): plasma PK of Formula (IIa) and its metabolites after a single oral dose of Formula (IIa), fed or fasted; format: in vivo, human; conditions: for Cmax / AUC(0-t) / Tmax / AUC(0-inf) / half-life: human, in vivo; for Cmax / AUC(0-t) / Tmax: po
Description: The study was a Phase 1, two-part, first-in-human study of single (Part A) and multiple (Part B) ascending doses (SAD and MAD) of Formula (IIa) at doses of 100-900 mg given as a monotherapy for up to 7 days. Subjects were enrolled at multiple sites in Australia and New Zealand. For both Parts A and B, the Safety Review Committee (SRC) determined whether dose escalation occurred after review of all safety data and any available PK/PD data. Part A was an open label, randomized SAD study consisting of four cohorts of two subjects each, with one subject randomized to be dosed in the fed state and the other in the fasted state, at doses of 100 mg to 800 mg Formula (IIa). All subjects were given a single dose of Formula (IIa) orally.
All plasma PK calculations were performed using actual time points calculated relative to the time of last drug administration.
PK analysis was conducted for all enrolled subjects that received any dose of Formula (IIa) with sufficient plasma sample data to assess PK parameters. […] Data analysis was performed using a validated version of WinNonlin® Enterprise (Version 5.2) software, and summary tables and figures were generated using a validated version of WinNonlin® Autopilot™ (Version 1.1.1) and other reporting tools, including SigmaPlot®.

[2] = tested on: HCV from sera of patients infected with resistant strains; test: Capture fusion assay: THP-1 cells infected with patient serum, fused with Huh7.5, HCV RNA by PCR; format: cell-based; conditions: for IC50: Hepatitis C virus
Description: Serum samples were taken from 30 patients who had either responded to or previously failed treatment with combination peg-interferon/ribavirin and a direct acting antiviral (DAA), e.g., sofosbuvir and ledipasvir, or DAA treatment alone (FIG. 16). The anti-HCV activity of Formula (IIa) was assessed using the capture fusion assay. Briefly, pre-stimulated THP-1 cells were infected with serum from donors chronically infected with the common HCV genotypes G1 or G3, or from patients infected with the less prevalent G2, G4 or G6 HCV. The hybrid cells were treated once with a range of concentrations of Formula (IIa). For comparison, fused cells infected with G1 and G3 sera were treated with telaprevir or alisporivir. The cells were cultured for 5 days, before quantification of HCV RNA by PCR. Dose-response curves were used to calculate IC50 values for each experiment. The detailed assay protocol is outlined below.
Huh7.5 and Huh7 cells were maintained in Dulbecco's modified Eagle medium with glutamine supplemented with 10% fetal calf serum and 1% penicillin/streptomycin (DMEM/10% FCS/PS). THP-1 cells were maintained in RPMI with glutamine supplemented with 10% fetal calf serum and 1% penicillin/streptomycin (RPMI/10% FCS/PS). Peripheral blood mononuclear cells (PBMC) and sera were obtained from patients with chronic HCV infection, with informed consent. Cytokines used were phorbol 12-myristate 13-acetate (PMA, Sigma-Aldrich, Dorset, UK), IFNγ (Invitrogen, Paisley, UK) and osteopontin (R&D Systems, Abingdon, UK). Primary antibodies used were anti-albumin (Dako, Glostrup, Denmark), anti-CD81 (BD Biosciences, Oxford, UK), anti-SR-B1 (Novus Biologicals, Cambridge, UK), anti-CD32 and anti-CD64 (Abcam, Cambridge, UK). Mouse IgG1 isotype control was purchased from Biolegend UK (London, UK). Fluorescent secondary antibodies AlexaFluor488 and 594 anti-sheep, anti-mouse and anti-rabbit IgG were purchased from Invitrogen.
PBMCs were separated from whole blood by centrifugation on Ficoll-Paque. The PBMC layer was washed twice before positive selection of CD14+ cells by magnetic separation. Huh7.5 cells were trypsinized and combined with CD14+ cells at a 1:1 ratio. After removal of all supernatant, the cell pellet was slowly resuspended in prewarmed polyethylene glycol 1500 (Roche Diagnostics, Burgess Hill, UK). After incubation at 37° C. for 2 minutes, prewarmed medium (DMEM/10% FCS/PS) was added dropwise and the cells washed by centrifugation. The fused cells were seeded into 6 well plates at a density of 5×10^5 cells/mL and maintained at 37° C. until RNA extraction.
THP-1 cells were seeded into 6 well plates at a density of 10^6 cells/mL and maintained in RPMI supplemented with 10% fetal calf serum and 1% penicillin/streptomycin (RPMI/10% FCS/1% PS) for 18 hours, with or without the addition of cytokines. The cells were washed three times and the medium replaced with RPMI/2% FCS and patient serum at a ratio of 1 HCV copy per cell. For antibody blocking experiments, cells were incubated with blocking antibody at 37° C. for one hour before addition of patient serum. After incubation at 37° C. for 18-24 hours, the supernatant was removed and cells were washed three times. Adherent cells were removed using a cell scraper and Huh7.5 cells added at a 1:1 ratio. Cell fusion was performed as described above. The fused cells were seeded into 6 well plates at a density of 10^5 cells/mL and maintained at 37° C. in the presence or absence of antiviral drugs for up to 7 days. In selected experiments, supernatants were pooled from non-drug treated wells and concentrated on a sucrose gradient. In brief, the pooled supernatants were filtered through a 0.45 μm filter then 10 mL of each was layered on 4 mL 20% sucrose. The supernatants were centrifuged at 24,000×g for 2 hours and the resulting pellet resuspended in 1 mL RPMI. […]

CO[C@H]1C(OP(=O)(OC[C@H]2O[C@@H](n3cnc4c(N)ncnc43)CC2O)SCOC(=O)OC(C)C)[C@@H](CO)O[C@H]1n1ccc(=O)[nH]c1=O (stereo partly shown) [Formula (IIa)]
Cmax ([1]; 200 mg, single oral 200 mg Formula (IIa), fasted, plasma, N=1): 0.577 ng/mL
AUC(0-t) ([1]; 200 mg, single oral 200 mg Formula (IIa), fasted, plasma, N=1, read-out: AUC0-24): 0.433 ng·h/mL
AUC(0-t) ([1]; 200 mg, single oral 200 mg Formula (IIa), fasted, plasma, N=1, read-out: AUC0-t): 0.289 ng·h/mL
Tmax ([1]; 200 mg, single oral 200 mg Formula (IIa), fasted, plasma, N=1, read-out: Tmax): 1 h
Cmax ([1]; 200 mg, single oral 200 mg Formula (IIa), fed, plasma, N=1): 0.261 ng/mL
AUC(0-t) ([1]; 200 mg, single oral 200 mg Formula (IIa), fed, plasma, N=1, read-out: AUC0-24): 0.131 ng·h/mL
AUC(0-t) ([1]; 200 mg, single oral 200 mg Formula (IIa), fed, plasma, N=1, read-out: AUC0-t): 0.0653 ng·h/mL
Tmax ([1]; 200 mg, single oral 200 mg Formula (IIa), fed, plasma, N=1, read-out: Tmax): 2 h
Cmax ([1]; 400 mg, single oral 400 mg Formula (IIa), fasted, plasma, N=1): 1.16 ng/mL
AUC(0-t) ([1]; 400 mg, single oral 400 mg Formula (IIa), fasted, plasma, N=1, read-out: AUC0-24): 1.37 ng·h/mL
AUC(0-t) ([1]; 400 mg, single oral 400 mg Formula (IIa), fasted, plasma, N=1, read-out: AUC0-t): 1.31 ng·h/mL
Tmax ([1]; 400 mg, single oral 400 mg Formula (IIa), fasted, plasma, N=1, read-out: Tmax): 2.5 h
Cmax ([1]; 400 mg, single oral 400 mg Formula (IIa), fed, plasma, N=1): 0.574 ng/mL
AUC(0-t) ([1]; 400 mg, single oral 400 mg Formula (IIa), fed, plasma, N=1, read-out: AUC0-24): 1.13 ng·h/mL
AUC(0-t) ([1]; 400 mg, single oral 400 mg Formula (IIa), fed, plasma, N=1, read-out: AUC0-t): 1.07 ng·h/mL
Tmax ([1]; 400 mg, single oral 400 mg Formula (IIa), fed, plasma, N=1, read-out: Tmax): 1.5 h
Cmax ([1]; 800 mg, single oral 800 mg Formula (IIa), fasted, plasma, N=1): 0.734 ng/mL
AUC(0-t) ([1]; 800 mg, single oral 800 mg Formula (IIa), fasted, plasma, N=1, read-out: AUC0-24): 0.809 ng·h/mL
AUC(0-t) ([1]; 800 mg, single oral 800 mg Formula (IIa), fasted, plasma, N=1, read-out: AUC0-t): 0.751 ng·h/mL
Tmax ([1]; 800 mg, single oral 800 mg Formula (IIa), fasted, plasma, N=1, read-out: Tmax): 1 h
Cmax ([1]; 800 mg, single oral 800 mg Formula (IIa), fed, plasma, N=1): 0.486 ng/mL
AUC(0-t) ([1]; 800 mg, single oral 800 mg Formula (IIa), fed, plasma, N=1, read-out: AUC0-24): 0.96 ng·h/mL
AUC(0-t) ([1]; 800 mg, single oral 800 mg Formula (IIa), fed, plasma, N=1, read-out: AUC0-t): 0.9 ng·h/mL
Tmax ([1]; 800 mg, single oral 800 mg Formula (IIa), fed, plasma, N=1, read-out: Tmax): 1.5 h
Tmax ([1]; single oral Formula (IIa), subjects dosed under fasted conditions, read-out: Individual Tmax range): 1 to 2.5 h
Tmax ([1]; single oral Formula (IIa), subjects dosed under fed conditions, read-out: Individual Tmax range): 1.5 to 2 h
AUC(0-inf) ([1]; single oral 400 mg Formula (IIa), fed, plasma, N=1): 1.43 ng·h/mL
half-life ([1]; single oral 400 mg Formula (IIa), fed, plasma, N=1, read-out: t1/2 (converted)): 1.16 h
AUC(0-inf) ([1]; single oral 800 mg Formula (IIa), fed, plasma, N=1): 1.39 ng·h/mL
half-life ([1]; single oral 800 mg Formula (IIa), fed, plasma, N=1, read-out: t1/2 (converted)): 1.42 h
half-life ([1]; two fed subjects (400 mg and 800 mg dose cohorts), read-out: half-life (terminal phase), range): 1.16 to 1.42 h
measurable Formula (IIa) concentrations in plasma ([1]; single oral 100 mg Formula (IIa), fasting and fed): no measurable Formula (IIa) concentrations
AUC0-t in the fasted subject higher than the fed subject ([1]; single oral 200 mg Formula (IIa)): 4 fold
peak plasma concentrations in the fasted subjects, times higher compared to the fed subjects ([1]; single oral 400 mg Formula (IIa)): 2.0 times
peak plasma concentrations in the fasted subjects, times higher compared to the fed subjects ([1]; single oral 800 mg Formula (IIa)): 1.5 times
measurable concentrations of Formula (IIa) in plasma ([1]; single oral dose levels of 100 mg and 200 mg): did not produce measurable concentrations
IC50 ([2]; five selected patient samples with NS5A mutations (Example 4, FIGS. 18A-18E), read-out: IC50 range): ≥ 1 nM
IC50 ([2]; genotype 3, genotype 3, treatment experienced group, mean±sem): 22 nM
IC50 ([2]; genotype 3, genotype 3, treatment naive group, mean±sem, read-out: IC50): 26 ± 7 nM
IC50 ([2]; patient sample post-peg/RBV treatment, read-out: IC50): 455 nM
IC50 ([2]; patient sample pre-peg/RBV treatment, read-out: IC50): 450 nM
IC50 ([2]; sample from patient 7 prior to administration of telaprevir, FIG. 14A, read-out: IC50): 450 nM
IC50 ([2]; sample from patient 22, repeated relapse after combination interferon and ribavirin therapy (IFN resistant), FIG. 12A, read-out: IC50): 24 nM
IC50 ([2]; sample from patient 23, relapse of HCV infection (IFN resistant), FIG. 12B, read-out: IC50): 5.46 nM
IC50 ([2]; sample from patient 25 after treatment with telaprevir, FIG. 14B, read-out: IC50): 6.4 nM
IC50 ([2]; serum sample from patient 30, sofosbuvir resistant strain, FIG. 13C, read-out: IC50): 4 nM
IC50 ([2]; serum samples from 30 patients (Example 3), read-out: IC50 range for all patient samples): 1 to 455 nM
genotype coverage of anti-HCV activity ([2]; patient sera of HCV genotypes G1, G3, G2, G4 or G6): pan-genotypic activity
sensitivity of sample to treatment ([2]; post-treatment sample of patient who relapsed after sofosbuvir-containing therapy, FIG. 24C): sensitive
